Broadly, the IC50 is the point on the concentration scale where inhibition reaches its midpoint. A lower IC50 goes with inhibition by little substance. By inhibition is commonly meant the relative decrease from the control value, in per cent. A higher inhibition goes with a response far below the control.

Molecules are shown by their SMILES.

For one experiment, the system named is MAPK phosphorylation in PANC-1 pancreatic cancer cell line. Kind of experiment: MAPK cell-based phosphorylation assay (cell-direct ELISA, EGF stimulation). The note with it: Homo sapiens. An outline of the steps:
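Cell-direct ELISA measured phospho-MAPK, with fluorescence read at 595 nm from AmpliFlu Red. Before fixation, PANC-1 cells starved overnight received 6 hours of compound (30 μM single dose or serial dilutions, 0.3% DMSO, 37° C), followed by 1.5 ng/ml EGF for 15 min.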
(In general: In an ELISA, binding on a coated surface is turned into a signal by an enzyme label.)
In the case of `O=C(c1csc2c(O)nc(-c3ccccn3)nc12)N1CCN(Cc2cccc(O)c2)CC1` [drawing 1125], the IC50 is more than 30 µM.

In the case of `CCc1cc(NNC(=O)c2ccc(C#N)cc2)nc(-c2ccccn2)n1` [drawing 1041], the IC50 is 2 to 10 µM.

The same experiment, now with this note: Homo sapiens, * = tested at 10 μM.
On to `Oc1nc(-c2ccccn2)nc2c(-c3cc(CN4CCCC4)ccc3F)csc12` [drawing 1263], for which the inhibition at 10 µM was found to be 0%.

In turn, `Oc1nc(-c2ccccn2)nc2c(Br)c(-c3ccccc3)sc12` [drawing 1313] came in with an inhibition at 10 µM of 0%.

The compound `CC(C)(C)c1sc2c(O)nc(-c3ccccn3)nc2c1Br` [drawing 1314] had an inhibition at 10 µM of 1 to 25%.

In turn, `Oc1nc(-c2ccccn2)nc2c(-c3ccccc3)c(-c3ccncc3)sc12` [drawing 1308] came in with an inhibition at 10 µM of 0%.

As for `Cc1sc2c(O)nc(-c3nccn3C)nc2c1-c1ccc(OC(C)C)c(F)c1` [drawing 1370], the inhibition at 10 µM was in the range of 25 to 50%.

`CN1CCN(c2nc(-c3ccccn3)nc3scc(C(=O)NCCc4cnc(O)nc4)c23)CC1` [drawing 1236] displayed an inhibition at 10 µM of 25 to 50%.

On to `COc1cnc(-c2nccn2C)nc1O` [drawing 1273], for which the inhibition at 10 µM was 25 to 50%.

Consider `COc1cnc(CNC(=O)c2cc3nc(-c4ccccn4)nc(O)c3s2)[nH]c1=O` [drawing 1281], for which the inhibition at 10 µM lay in the range of 51 to 75%.

Compound `Cc1sc2c(O)nc(-c3ccccn3)nc2c1Br` [drawing 1282] returned an inhibition at 10 µM of 76 to 100%.

`Oc1nc(-c2ccccn2)nc2c(CC3CNC3)csc12` [drawing 1279] gave an inhibition at 10 µM of 0%.

In turn, `Cc1sc2c(O)nc(-c3nccn3C)nc2c1-c1cccc(C(F)(F)F)c1` [drawing 1359] registered an inhibition at 10 µM of 1 to 25%.

For `CCn1nc(C)cc1-c1csc2c(O)nc(-c3ccccn3)nc12` [drawing 1239], the inhibition at 10 µM was in the range of 1 to 25%.

Compound `Oc1nc(-c2ccccn2)nc2c(-c3ccc(OC4CCCC4)cc3)csc12` [drawing 1203] gave an inhibition at 10 µM of 25 to 50%.

With `COc1ccc(-c2csc3c(O)nc(-c4ccccn4)nc23)c(C)c1` [drawing 1220], the inhibition at 10 µM fell in the range of 76 to 100%.

Compound `CC(CO)Nc1nc(-c2nccn2C)nc2sc(-c3ccccc3)c(-c3ccccc3)c12` (centres unmarked) [drawing 1338] had an inhibition at 10 µM of 25 to 50%.

`CCOCCOc1nc(-c2nccn2C)nc2sc(-c3ccccc3)c(-c3ccccc3)c12` [drawing 1332] registered an inhibition at 10 µM of 0%.

Still in this experiment, the particulars now being: Homo sapiens, at 30 μM.
For the compound `COc1cccc(CN2CCN(C(=O)c3csc4c(O)nc(-c5ccccn5)nc34)CC2)c1` [drawing 1145], the inhibition at 30 µM lay in the range of 25 to 50%.

As for `O=C(Nc1nnc(-c2ccccn2)[nH]1)c1ccn(-c2ccccc2)n1` [drawing 998], the inhibition at 30 µM was 1 to 25%.

`Oc1nc(-c2ccccn2)nc2c1ncn2-c1ccccn1` [drawing 1077] had an inhibition at 30 µM of 1 to 25%.

Compound `COCCCCNC(=O)c1csc2nc(-c3ccccn3)nc(N3CCN(C)CC3)c12` [drawing 1131] registered an inhibition at 30 µM of 1 to 25%.

Compound `CN(Cc1cnn(C)c1)c1nc(-c2ccccn2)nc2scc(-c3ccccc3)c12` [drawing 1089] returned an inhibition at 30 µM of 25 to 50%.

`Cc1ccccc1C1CN(C(=O)c2csc3c(O)nc(-c4ccccn4)nc23)CCN1` (centres unmarked) [drawing 1152] came in with an inhibition at 30 µM of 1 to 25%.

`O=C(c1csc2c(O)nc(-c3ccccn3)nc12)N1CCN(Cc2cccc(O)c2)CC1` [drawing 1125] returned an inhibition at 30 µM of 51 to 75%.

Take `CCOC(=O)c1ccnc(N2CCC(C)CC2c2ccc(CC)o2)c1[N+](=O)[O-]` (centres unmarked): the inhibition at 30 µM fell in the range of 25 to 50%.

For the compound `CN(CCCc1n[nH]c(N)c1C#N)c1nc(-c2ccccn2)nc2sc(-c3ccccc3)cc12` [drawing 1090], the inhibition at 30 µM was in the range of 25 to 50%.

Compound `CCc1cc(NNC(=O)c2ccc(C#N)cc2)nc(-c2ccccn2)n1` [drawing 1041] came in with an inhibition at 30 µM of 76 to 100%.

Consider `COc1cccc(C2CN(C(=O)c3csc4c(O)nc(-c5ccccn5)nc34)CCO2)c1` (centres unmarked) [drawing 1126], for which the inhibition at 30 µM fell in the range of 1 to 25%.

`N#Cc1csc2nc(-c3ccccn3)nc(N3CCOCC3)c12` [drawing 1178] showed an inhibition at 30 µM of 1 to 25%.

On to `COc1ccccc1N1CCN(C(=O)c2csc3c(O)nc(-c4ccccn4)nc23)CC1` [drawing 1117], for which the inhibition at 30 µM fell in the range of 1 to 25%.

Compound `FC(F)(F)c1csc2nc(-c3ccccn3)nc(N3CCOCC3)c12` [drawing 1132] came in with an inhibition at 30 µM of 1 to 25%.

These data come from patent US10940139B2, “Compounds that interact with the Ras superfamily for the treatment of cancers, inflammatory diseases, rasopathies, and fibrotic disease” (Shy Therapeutics LLC, priority 2017, dated 2021).
